In test [1] the test system is β-adrenergic receptors. As to the kind of experiment: Spontaneous contractile activity of cardiomyocytes differentiated from vascular stroma cells (β-adrenergic agents). It is filed as cell-based, mouse. To be noted: untreated = 100%. Here is the method:
(§1) Cells of the vascular stroma, isolated as described in Example 1.2, are cultured in the methylcellulose-based semi-solid medium as defined above (Example 1.8).
(§2) The cardiomyocytes are also detected by their spontaneous contractile activity in the presence or absence of agonists or antagonists of muscarinic acetylcholine receptors (carbamylcholine and atropine, respectively) or β-adrenergic receptors (isoproterenol and propranolol, respectively).
(§3) More precisely, 1 ml of DMEM medium containing carbamylcholine (2 μM), atropine (10 μM), isoproterenol (10 μM) or propranolol (40 μM) is added to the methyl-cellulose-based medium. After incubation for 5 min, necessary for diffusion of the molecules, the excess buffer is removed and the cell contractions are counted under the microscope for one minute.
(§4) The values correspond to the mean of 3 independent measurements.

Test [2] deals with muscarinic acetylcholine receptors. As to the kind of experiment: Spontaneous contractile activity of cardiomyocytes differentiated from vascular stroma cells (muscarinic agents). Type of test: cell-based, mouse. To be noted: untreated = 100%. Here is the method:
as §1, §2, §3, §4

On to `CC(C)NCC(O)c1ccc(O)c(O)c1` (stereo not shown) [Isoproterenol, isoproterenol], for which, in test [1] (isoproterenol (10 μM) alone, mean of 3 independent measurements), the Contractions is 160%.

`C[N+](C)(C)CCOC(N)=O.[Cl-]` [Carbamylcholine, carbamylcholine] yielded a Contractions in test [2] (carbamylcholine (2 μM) alone, mean of 3 independent measurements) of 53%.

For the compound `CC(C)NCC(O)COc1cccc2ccccc12` (stereo not shown) [Propranolol, propranolol], in test [1] (propranolol (40 μM) added with isoproterenol (10 μM), mean of 3), the Contractions is given as 100%.

In the case of `CN1[C@@H]2CC[C@H]1C[C@@H](OC(=O)C(CO)c1ccccc1)C2` (stereo partly shown) [Atropine, atropine], in test [2] (atropine (10 μM) added with carbamylcholine (2 μM), mean of 3), the Contractions amounted to 106%.

For the origin of these results see patent publication US20040067218A1, “Extramedullary adipose tissue cells and use thereof for regenerating hematopoietic and muscular tissue” (priority 2001, published 2004).
